Experimental data: PMC4336141, “Repurposing Auranofin as a Lead Candidate for Treatment of Lymphatic Filariasis and Onchocerciasis” (PLoS Neglected Tropical Diseases, 2015)

Experiments:
[1] = tested on: Recombinant B. malayi TrxR (rBmTrxR); assay: Recombinant B. malayi TrxR (rBmTrxR) DTNB inhibition assay; type: biochemical, Brugia malayi
Method: Recombinant 6-His-tagged B. malayi TrxR (rBmTrxR) was produced in E. coli BL21(DE3) in the presence of pSUABC [29] in LB medium supplemented with 20 μg/mL riboflavin under conditions for optimal selenoprotein expression. An overnight starter culture in LB with 50 μg/mL ampicillin and 34 μg/mL chloramphenicol was diluted (1:100) into in LB medium with the same antibiotics. When the culture reached an OD600 = 0.8, the medium was supplemented with 5 μM sodium selenite and 100 μg/mL L-cysteine. When the culture OD600 = 2, riboflavin (20 μg/mL) was added and protein expression was induced by the addition of isopropyl β-D-1-thiogalactopyranoside (50 μM). At this point the cultures were shifted to 24°C and incubated for 24 hr. Cells were collected by centrifugation, lysed by alternative freeze-thaw cycles, and resuspended in lysis buffer (50 mM potassium phosphate, pH 7.8, 500 mM NaCl, 30 mM imidazole, 1 mg/mL lysozyme, 1 mM phenylmethanesulfonylfluoride) supplemented with 100 μM flavin adenine dinucleotide. The sample was sonicated and cellular debris pelleted at 25,000 x g at 4°C for 25 min. The supernatant was collected and filtered through a 0.45 μm filter before purification by immobilized metal ion affinity chromatography using a His-Trap FF column (GE Healthcare). The column was washed with 10 column volumes binding buffer (50 mM potassium phosphate, pH 7.8, 500 mM NaCl, 30 mM imidazole) and then with 5 column volumes of buffer A (binding buffer with 100 mM imidazole). TrxR protein was eluted in 3 × 1 mL buffer B (binding buffer with 500 mM imidazole).Protein was concentrated (Amicon Ultra-4 10K) and purity was verified by SDS-PAGE and quantified by absorbance at 280 nm (ε = 69.76 mM^-1 cm^-1).
rBmTrxR activity was assayed in 0.1 M potassium phosphate (pH 7.2) with 10 mM EDTA and 25 nM rBmTrxR. rBmTxrR was pre-incubated for 20 min with NADPH (100 μM) and auranofin (ICN Pharmaceuticals, now Valeant Pharmaceuticals, Bridgewater, NJ) or aurothioglucose (USP Reference Standards, Rockville, MD) in DMSO in 100 μL, followed by addition of an equal volume of buffer with NADPH (200 μM) and DTNB (6 mM) with reaction progress monitored at λ = 412 nm for TNB production. The concentration of DMSO in all reactions was 3.5%.

[2] = tested on: adult female O. ochengi; assay: Adult female Onchocerca ochengi viability, MTT/formazan assay in vitro; type: cell-based; conditions: Day 7, MTT/formazan
Method: Cows that had grazed in northern Cameroon where O. ochengi is highly endemic were brought to abattoirs located in Douala, Cameroon. Subcutaneous nodules containing adult O. ochengi worms were identified on the umbilical skin of infected cows. Adult worm masses containing one viable, adult female and zero to several adult males were carefully recovered by dissection of the nodule with a sterile razor blade. The masses were then incubated in 4 mL of complete culture medium (CCM), which was comprised of RPMI-1640 (Sigma-Aldrich), 5% newborn calf serum, 200 units/mL penicillin, 200 μg/mL streptomycin and 2.5 μg/mL amphotericin B (Sigma-Aldrich), in standard 12-well culture plates. […] Adult female worm viability was assessed on day 7 by the standard MTT/formazan assay in which each nodular mass was placed in a well of a 48-well microtiter plate containing 500 μL of 0.5 mg/mL MTT (Sigma-Aldrich) in incomplete culture medium, and then incubated in the dark at 37°C for 30 minutes. Adult female worm viability was evaluated visually by the extent to which the female worm mass was stained with MTT. Mean percent inhibition of formazan formation was calculated relative to the negative control worm masses after 7 days in culture. […]

[3] = tested on: endogenous Brugia thioredoxin reductase; assay: Thioredoxin reductase activity of lysates of worms recovered from gerbils treated in vivo
Method: Thioredoxin reductase activity of worm lysates was assayed using female B. malayi treated in vitro with either 0.3 μM, 0.1 μM, or 0.03 μM auranofin or 1% DMSO. After 5 hours of treatment, worm motility was measured using the Worminator, and then worms (24 in each group) were pooled, washed three times in PBS, and lysed by douncing in a glass homogenizer in assay buffer (Abcam Thioredoxin Reductase Assay kit, ab83463) with 1 mM PMSF. The crude lysates were centrifuged at 10,000 rcf for 15 minutes at 4°C to pellet insoluble material. The total protein concentrations of soluble lysates were measured using the Bradford assay. The soluble lysates were incubated for 20 minutes in assay buffer or assay buffer with a proprietary thioredoxin reductase specific inhibitor before adding a specific substrate, DTNB (5, 5′-dithiobis (2-nitrobenzoic) acid), and measuring activity at 20 second intervals for 40 minutes using the SpectraMax Plus Microplate Reader (Molecular Devices, Sunnyvale, CA) at λ = 412 nm. Lysates were tested in duplicate. TrxR activity was calculated based on the linear amount of TNB produced per minute per mg of total protein and adjusted for background activity from enzymes other than TrxR in the lysates.
Thioredoxin reductase activity was also analyzed in worms that were treated with auranofin or vehicle in vivo. […]

[4] = tested on: L. loa microfilariae; assay: Loa loa microfilariae motility in vitro; type: cell-based; conditions: Day 5
Method: Loa loa microfilariae were purified from the blood of a heavily infected subject (having approximately 10,000 microfilariae/mL of blood) using Percoll (GE Healthcare, Piscataway, NJ) gradient centrifugation. Venous blood (10 mL) was collected from consenting, infected individuals in an EDTA tube. The blood was layered on a step-wise Percoll gradient (46% and 43% Percoll prepared in CCM) followed by centrifugation at 400 rcf for 20 minutes. The L. loa microfilariae were recovered in the 43% layer, washed 3 times in CCM and counted.
Microfilariae (10–15 per well) were cultured in 96-well culture plates in duplicate under the same conditions and drug concentrations as were used for the adult O. ochengi, except that 10 μg/mL ivermectin was used as a positive control. Microfilariae viability was visually scored based on motility reduction using the same scale described above for adult male O. ochengi. Scores were recorded every 24 hours after the addition of drugs for 5 days using an inverted microscope.

## CC[PH](CC)(CC)[Au][S][C@@H]1O[C@H](COC(C)=O)[C@@H](OC(C)=O)[C@H](OC(C)=O)[C@H]1OC(C)=O [auranofin, 2,3,4,6-tetra-O-acetyl-1-thio-beta-D-glucopyranosato-S (triethylphosphine) gold]
[1]
  mode of inhibition of rBmTrxR: irreversibly inhibit rBmTrxR at a one-to-one molar ratio
[1]; 25 nM rBmTrxR, 20 min pre-incubation with NADPH, DTNB substrate
  IC50: 3 nM
[2]
  IC50: 300 nM
[3]; worms collected 16 days after the last dose from treated gerbils
  Thioredoxin reductase activity, percent of vehicle control: 51%
[3]; worms removed 16 days after the last dose from gerbils treated 28 days
  reduction of endogenous thioredoxin reductase activity vs vehicle: 49%
[4]
  IC50: 12800 nM
